Test results taken from US10183021B2, “sGC stimulators” (Ironwood Pharmaceuticals, Inc., priority 2013, dated 2019).

target: soluble guanylate cyclase (sGC) (Homo sapiens (Human), UniProt Q02108+Q02153); assay: sGC-HEK-cGMP assay, new protocol with DETA-NONOate, LC/MS detection (Example 2C); type: cell-based; conditions: read-out: Absolute EC50 (uM) - binned
Procedure: Human embryonic kidney cells (HEK293), endogenously expressing soluble guanylate cyclase (sGC), were used to evaluate the activity of test compounds. Compounds stimulating the sGC enzyme should cause an increase in the intracellular concentration of cGMP. HEK 293 cells were seeded in Dulbecco's Modification of Eagle's Medium supplemented with fetal bovine serum (10% final) and penicillin (100 U/mL)/streptomycin (100 μg/mL) in a 50 μL volume at a density of 1.5×10^4 cells/well in a poly-D-lysine coated 384 well flat bottom plate. Cells were incubated overnight at 37° C. in a humidified chamber with 5% CO2. Medium was aspirated and cells were washed with 1× Hank's Buffered Saline Salt Solution (50 μL). Cells were then incubated for 15 minutes at 37° C. with 50 μL of a 0.5 mM 3-isobutyl-1-methylxanthine (IBMX) solution. Test article and Diethylenetriamine NONOate (DETA-NONOate) solutions (x μM concentration for test article solution and 10 μM concentration for DETA-NONOate solution; wherein x is one of the following concentrations);
were then added to the assay mixture and the resulting mixture incubated at 37° C. for 20 minutes. After the 20 minute incubation, the assay mixture was aspirated and 10% acetic acid containing 150 ng/mL+3-cGMP (internal standard for LCMS) (50 μL) was added to the cells. The plate was incubated at 4° C. for 30 minutes in the acetic acid solution to stop the reaction and lyse the cells. The plates were then centrifuged at 1,000 g for 3 minutes at 4° C. and the supernatant transferred to a clean reaction plate for LCMS analysis.
cGMP concentrations were determined from each sample using the LCMS conditions below (Table 5) and calculated standard curve.
Data were normalized to a high control using the following equation: 100*(Sample−Low Control)/(High Control−Low Control), where the low control is the average of 16 samples treated with 1% DMSO, and the high control is the average of 16 samples treated with 30 μM of 1-329 Data were fit using a 4-parameter fit (log(agonist) vs. response—variable slope) using GraphPad Prism Software v.5. n=2 for all compounds. […] Compounds failing to elicit a minimum response of 50% are reported as >30 μM.

Sequence of soluble guanylate cyclase (sGC) (Q02153 whole entry): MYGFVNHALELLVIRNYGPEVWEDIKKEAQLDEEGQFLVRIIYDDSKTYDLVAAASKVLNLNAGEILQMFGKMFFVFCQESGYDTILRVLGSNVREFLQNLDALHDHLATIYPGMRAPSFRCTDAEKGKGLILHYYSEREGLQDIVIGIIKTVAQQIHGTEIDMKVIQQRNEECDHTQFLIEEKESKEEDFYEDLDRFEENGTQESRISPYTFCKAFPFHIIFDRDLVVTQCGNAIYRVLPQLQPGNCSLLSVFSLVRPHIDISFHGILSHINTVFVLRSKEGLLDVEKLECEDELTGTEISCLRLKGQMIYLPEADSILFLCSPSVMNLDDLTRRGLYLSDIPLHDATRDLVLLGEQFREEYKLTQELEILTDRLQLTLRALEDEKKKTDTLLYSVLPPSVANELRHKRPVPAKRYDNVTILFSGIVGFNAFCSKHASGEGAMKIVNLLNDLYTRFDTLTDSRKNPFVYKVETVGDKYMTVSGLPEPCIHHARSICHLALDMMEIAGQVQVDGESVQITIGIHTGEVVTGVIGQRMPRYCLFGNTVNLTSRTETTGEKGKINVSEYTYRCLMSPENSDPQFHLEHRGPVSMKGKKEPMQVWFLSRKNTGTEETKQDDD
Sequence of soluble guanylate cyclase (sGC) (Q02108 whole entry): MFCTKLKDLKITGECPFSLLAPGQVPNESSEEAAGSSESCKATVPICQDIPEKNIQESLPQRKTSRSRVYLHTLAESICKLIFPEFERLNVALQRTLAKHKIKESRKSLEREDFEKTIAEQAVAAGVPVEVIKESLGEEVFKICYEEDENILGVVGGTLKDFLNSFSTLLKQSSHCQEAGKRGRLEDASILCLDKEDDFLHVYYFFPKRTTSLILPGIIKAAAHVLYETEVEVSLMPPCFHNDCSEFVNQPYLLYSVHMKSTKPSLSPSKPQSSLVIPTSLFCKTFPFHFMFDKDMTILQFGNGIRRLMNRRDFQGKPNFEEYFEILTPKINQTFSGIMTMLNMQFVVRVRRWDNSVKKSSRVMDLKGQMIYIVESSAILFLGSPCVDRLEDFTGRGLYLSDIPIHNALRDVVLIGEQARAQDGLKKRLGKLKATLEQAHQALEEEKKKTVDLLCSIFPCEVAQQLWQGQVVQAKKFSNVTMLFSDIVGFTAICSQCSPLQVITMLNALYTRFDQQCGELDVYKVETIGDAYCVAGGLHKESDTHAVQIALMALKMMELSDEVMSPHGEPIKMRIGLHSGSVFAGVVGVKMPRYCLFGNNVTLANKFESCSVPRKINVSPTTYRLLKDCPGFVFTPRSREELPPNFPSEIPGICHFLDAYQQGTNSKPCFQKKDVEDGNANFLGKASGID

`O=C(Nc1ccnc(-c2cc(-c3ccon3)n(Cc3ccccc3F)n2)n1)C1(OCc2ccccc2)CCOCC1` [Compound I-525] and `O=C(Cc1ccccc1)NCC(=O)Nc1ccnc(-c2cc(-c3ccon3)n(Cc3ccccc3F)n2)n1` [Compound I-597] cannot be ordered by EC50: greater than 1 µM for the first, greater than 1 µM for the second.

`O=S(=O)(CCC(F)(F)F)Nc1nc(-c2cc(-c3ccon3)n(Cc3ccccc3F)n2)ncc1F` [Compound I-445] and `CCCS(=O)(=O)Nc1nc(-c2cc(-c3ccon3)n(Cc3ccccc3F)n2)ncc1F` [Compound I-611] fall in the same range of EC50: 0.101 to 1 µM for the first, 0.101 to 1 µM for the second.

Compared with `O=S(=O)(CCNc1nc(-c2cc(-c3ccon3)n(Cc3ccccc3F)n2)ncc1F)NC[C@H](O)CO` [Compound I-437], `CS(=O)(=O)CCNc1nc(-c2cc(-c3ccon3)n(Cc3ccccc3F)n2)ncc1F` [Compound I-487] is lower in EC50: 0.101 to 1 µM for the first, less than 0.1 µM for the second. The second is the more potent here.

`OC[C@@H]1[C@H](O)CCN1c1nc(-c2cc(-c3ccon3)n(Cc3ccccc3F)n2)ncc1F` [Compound I-430] and `OC[C@H]1CCN(c2nc(-c3cc(-c4ccon4)n(Cc4ccccc4F)n3)ncc2F)[C@@H](CO)C1` [Compound I-318] cannot be ordered by EC50: less than 0.1 µM for the first, less than 0.1 µM for the second.

`Cc1cn(CC(=O)Nc2ccnc(-c3cc(-c4ccon4)n(Cc4ccccc4F)n3)n2)c(=O)[nH]c1=O` [Compound I-571] and `O=C(CN1C(=O)c2ccccc2C1=O)Nc1ccnc(-c2cc(-c3ccon3)n(Cc3ccccc3F)n2)n1` [Compound I-596] cannot be ordered by EC50: greater than 1 µM for the first, greater than 1 µM for the second.

`O=C(Nc1ccnc(-c2cc(-c3ccon3)n(Cc3ccccc3F)n2)n1)c1ccco1` [Compound I-560] and `O=C(Nc1ccnc(-c2cc(-c3ccon3)n(Cc3ccccc3F)n2)n1)c1cnco1` [Compound I-556] cannot be ordered by EC50: greater than 1 µM for the first, greater than 1 µM for the second.

Compared with `CN(CC(C)(O)C(N)=O)c1nc(-c2cc(-c3ccon3)n(Cc3ccccc3F)n2)ncc1F` (centres unmarked) [Compound I-393], `CN(CC(C)(C)C(=O)O)c1nc(-c2cc(-c3ccon3)n(Cc3ccccc3F)n2)ncc1F` [Compound I-383] is lower in EC50: 0.101 to 1 µM for the first, less than 0.1 µM for the second.

`CCOC(=O)C1=C(O)CN(c2nc(-c3cc(-c4ccon4)n(Cc4ccccc4F)n3)ncc2F)CC1` [Compound I-378] and `NC(=O)C1(O)CCN(c2nc(-c3cc(-c4ccon4)n(Cc4ccccc4F)n3)ncc2F)CC1` [Compound I-438] cannot be ordered by EC50: less than 0.1 µM for the first, less than 0.1 µM for the second.

First: CC1(C(=O)Nc2ccnc(-c3cc(-c4ccon4)n(Cc4ccccc4F)n3)n2)CC1 [Compound I-569]
Second: CC(=O)OCC(=O)Nc1ccnc(-c2cc(-c3ccon3)n(Cc3ccccc3F)n2)n1 [Compound I-497]
The EC50 of the first is higher: greater than 1 µM for the first, 0.101 to 1 µM for the second. The second is the more potent here.

`CC(C)(C)OC(=O)NCC(=O)Nc1ccnc(-c2cc(-c3ccon3)n(Cc3ccccc3F)n2)n1` [Compound I-519] and `CC(C)(C(=O)Nc1ccnc(-c2cc(-c3ccon3)n(Cc3ccccc3F)n2)n1)S(C)(=O)=O` [Compound I-580] fall in the same range of EC50: 0.101 to 1 µM for the first, 0.101 to 1 µM for the second.

First: CS(=O)(=O)NCCC(Nc1nc(-c2cc(-c3ccon3)n(Cc3ccccc3F)n2)ncc1F)C(F)(F)F (centres unmarked) [Compound I-544]
Second: CC(C(=O)Nc1nc(-c2cc(-c3ccon3)n(Cc3ccccc3F)n2)ncc1F)S(C)(=O)=O (centres unmarked) [Compound I-589]
The EC50 of the first is lower: less than 0.1 µM for the first, 0.101 to 1 µM for the second. The first is the more potent here.

`O[C@@H]1[C@H](O)CN(c2nc(-c3cc(-c4ccon4)n(Cc4ccccc4F)n3)ncc2F)C[C@@H]1O` [Compound I-347] and `O[C@@H]1CN(c2nc(-c3cc(-c4ccon4)n(Cc4ccccc4F)n3)ncc2F)CC[C@@H]1O` [Compound I-350] cannot be ordered by EC50: less than 0.1 µM for the first, less than 0.1 µM for the second.

Compared with `C[C@H]1[C@@H](C(=O)O)CCCN1c1nc(-c2cc(-c3ccon3)n(Cc3ccccc3F)n2)ncc1F` [Compound I-311], `C[C@@H]1[C@H](C(=O)O)CCCN1c1nc(-c2cc(-c3ccon3)n(Cc3ccccc3F)n2)ncc1F` [Compound I-310] is lower in EC50: 0.101 to 1 µM for the first, less than 0.1 µM for the second.

`O=S(=O)(CCC(F)(F)F)Nc1cnc(-c2cc(-c3ccon3)n(Cc3ccccc3F)n2)nc1` [Compound I-595] and `COCCS(=O)(=O)Nc1ccnc(-c2cc(-c3ccon3)n(Cc3ccccc3F)n2)n1` [Compound I-479] fall in the same range of EC50: 0.101 to 1 µM for the first, 0.101 to 1 µM for the second.

Compared with `C[C@@H]1CN(c2nc(-c3cc(-c4ccon4)n(Cc4ccccc4F)n3)ncc2F)C[C@@H]1C(=O)O` [Compound I-314], `O=C(NC1CN(c2nc(-c3cc(-c4ccon4)n(Cc4ccccc4F)n3)ncc2F)C1)C1(O)CC1` [Compound I-440] is higher in EC50: less than 0.1 µM for the first, 0.101 to 1 µM for the second.

Compared with `CN(C)S(=O)(=O)NCC(=O)Nc1ccnc(-c2cc(-c3ccon3)n(Cc3ccccc3F)n2)n1` [Compound I-586], `CS(=O)(=O)CS(=O)(=O)Nc1ccnc(-c2cc(-c3ccon3)n(Cc3ccccc3F)n2)n1` [Compound I-472] is higher in EC50: 0.101 to 1 µM for the first, greater than 1 µM for the second. The first is the more potent here.

First: CN(CC1(C(=O)O)CC1)c1nc(-c2cc(C(N)=O)n(Cc3ccccc3F)n2)ncc1F [Compound I-481]
Second: CN(CC1(C(=O)O)CC1)c1nc(-c2cc(C#N)n(Cc3ccccc3F)n2)ncc1F [Compound I-480]
The EC50 of the first is higher: greater than 1 µM for the first, 0.101 to 1 µM for the second. The second is the more potent here.

`O=C1C=C(O)CC(C(=O)Nc2ccnc(-c3cc(-c4ccon4)n(Cc4ccccc4F)n3)n2)C1` (centres unmarked) [Compound I-458] and `COc1cc(C(=O)Nc2ccnc(-c3cc(-c4ccon4)n(Cc4ccccc4F)n3)n2)on1` [Compound I-554] cannot be ordered by EC50: greater than 1 µM for the first, greater than 1 µM for the second.

Compared with `NC(=O)C(O)(CNc1nc(-c2cc(-c3ccon3)n(Cc3cccc(F)c3F)n2)ncc1F)C(F)(F)F` (centres unmarked) [Compound I-522], `O=C(O)C(O)(CNc1nc(-c2cc(-c3ccon3)n(Cc3cccc(F)c3F)n2)ncc1F)C(F)(F)F` (centres unmarked) [Compound I-489] is higher in EC50: less than 0.1 µM for the first, greater than 1 µM for the second. The first is the more potent here.

First: COC(=O)Nc1nc(-c2cc(-c3ccon3)n(Cc3ccccc3F)n2)ncc1N [Compound I-542]
Second: NCC(O)CNc1nc(-c2cc(-c3ccon3)n(Cc3ccccc3F)n2)ncc1F (centres unmarked) [Compound I-348]
The EC50 of the first is lower: 0.101 to 1 µM for the first, greater than 1 µM for the second. The first is the more potent here.

First: CC(C)(C(=O)Nc1nc(-c2cc(-c3ccon3)n(Cc3ccccc3F)n2)ncc1F)S(C)(=O)=O [Compound I-582]
Second: [2H]C([2H])(O)C([2H])([2H])Nc1nc(-c2cc(-c3ccon3)n(Cc3ccccc3F)n2)ncc1F [Compound I-495]
The EC50 of the first is higher: greater than 1 µM for the first, less than 0.1 µM for the second. The second is the more potent here.

Compared with `O=C1C(O)CCN1c1nc(-c2cc(-c3ccon3)n(Cc3ccccc3F)n2)ncc1F` (centres unmarked) [Compound I-615], `CC1(C(N)=O)CCN(c2nc(-c3cc(-c4ccon4)n(Cc4ccccc4F)n3)ncc2F)C1=O` (centres unmarked) [Compound I-606] is lower in EC50: greater than 1 µM for the first, 0.101 to 1 µM for the second. The second is the more potent here.

`O=C(CC(O)(C(F)(F)F)C(F)(F)F)Nc1ccnc(-c2cc(-c3ccon3)n(Cc3ccccc3F)n2)n1` [Compound I-490] and `O=C(Cc1nccs1)Nc1ccnc(-c2cc(-c3ccon3)n(Cc3ccccc3F)n2)n1` [Compound I-469] fall in the same range of EC50: 0.101 to 1 µM for the first, 0.101 to 1 µM for the second.

`CN(C[C@@H](O)CO)c1nc(-c2cc(-c3ccon3)n(Cc3ccccc3F)n2)ncc1F` [Compound I-321] and `NC(=O)[C@](O)(CNc1nc(-c2cc(-c3ccon3)n(Cc3ccccc3F)n2)ncc1F)C(F)(F)F` [Compound I-531] cannot be ordered by EC50: less than 0.1 µM for the first, less than 0.1 µM for the second.

`CCOc1c(Nc2ccnc(-c3cc(-c4ccon4)n(Cc4ccccc4F)n3)n2)c(=O)c1=O` [Compound I-327] and `O=C(Cn1cnc2ccccc2c1=O)Nc1ccnc(-c2cc(-c3ccon3)n(Cc3ccccc3F)n2)n1` [Compound I-601] cannot be ordered by EC50: greater than 1 µM for the first, greater than 1 µM for the second.

Going from `O=C(O)[C@H]1CCC[C@@H](Nc2nc(-c3cc(-c4ccon4)n(Cc4ccccc4F)n3)ncc2F)C1` [Compound I-380] to `O=S(=O)(O)C1CCN(c2nc(-c3cc(-c4ccon4)n(Cc4ccccc4F)n3)ncc2F)CC1` [Compound I-363], the EC50 rises from less than 0.1 µM to greater than 1 µM. The first is the more potent here.

First: O=C(O)c1ccc(CNc2nc(-c3cc(-c4ccon4)n(Cc4ccccc4F)n3)ncc2F)s1 [Compound I-448]
Second: O=c1nc[nH]n1-c1nc(-c2cc(-c3ccon3)n(Cc3ccccc3F)n2)ncc1F [Compound I-442]
The EC50 of the first is lower: 0.101 to 1 µM for the first, greater than 1 µM for the second.

Compared with `O=C(NC1CN(c2nc(-c3cc(-c4ccon4)n(Cc4ccccc4F)n3)ncc2F)C1)C(F)(F)F` [Compound I-387], `O=C1CCC(C(F)(F)F)N1c1nc(-c2cc(-c3ccon3)n(Cc3ccccc3F)n2)ncc1F` (centres unmarked) [Compound I-501] is higher in EC50: less than 0.1 µM for the first, greater than 1 µM for the second. The first is the more potent here.

First: CC(=O)c1cc(-c2ncc(F)c(O)n2)nn1Cc1ccccc1F [Compound I-450]
Second: C[C@@H](Nc1nc(-c2cc(-c3ccon3)n(Cc3ccccc3F)n2)ncc1F)c1nnc(C(F)(F)F)o1 [Compound I-622]
The EC50 of the first is higher: greater than 1 µM for the first, less than 0.1 µM for the second. The second is the more potent here.

Compared with `O=C(NS(=O)(=O)C1CCN(c2nc(-c3cc(-c4ccon4)n(Cc4ccccc4F)n3)ncc2F)C1)C1CC1` (centres unmarked) [Compound I-429], `O=C(CS(=O)(=O)c1ccc(Cl)cc1)Nc1ccnc(-c2cc(-c3ccon3)n(Cc3ccccc3F)n2)n1` [Compound I-593] is higher in EC50: less than 0.1 µM for the first, greater than 1 µM for the second. The first is the more potent here.

`CCN(CC)c1nc(-c2cc(-c3ccon3)n(CCC(F)(F)F)n2)ncc1F` [Compound I-517] and `COC(=O)N(C)c1c(N)nc(-c2cc(-c3ccon3)n(Cc3ccccc3F)n2)nc1N` [Compound I-621] cannot be ordered by EC50: greater than 1 µM for the first, greater than 1 µM for the second.
